Data reported in ChEMBL document CHEMBL1131732, “Potential anxiolytic agents. 3. Novel A-ring modified pyrido[1,2-a]benzimidazoles” (Bioorg Med Chem Lett, 1999).

What follows are compounds tested against GABA-A receptor; anion channel (assay: In vitro inhibitory against Gamma-aminobutyric acid A receptor from rat cerebral cortex using [3H]flunitrazepam as the radioligand). Conditions: not given.
Type: tissue-based

Row | SMILES | IC50
1 | COc1cccc2c1nc1n2CCC(O)=C1C(=O)Nc1ccccc1F | 7.8 nM
2 | O=C(Nc1ccccc1F)C1=C(O)CCn2c1nc1c(F)cc(F)cc12 | 19.8 nM
3 | O=C(Nc1c(F)cccc1F)C1=C(O)CCn2c1nc1cc(Cl)ccc12 | 6.3 nM
4 | O=C(Nc1ccccc1)C1=C(O)CCn2c1nc1cccnc12 | 4380 nM
5 | O=C(Nc1ccccc1)C1=C(O)CCn2c1nc1ccc(Cl)cc12 | 174 nM
6 | O=C(Nc1ccccc1F)C1=C(O)CCn2c1nc1cccc(O)c12 | 14 nM
7 | O=C(Nc1ccccc1)C1=C(O)CCn2c1nc1cc(O)ccc12 | 40.5 nM
8 | O=C(Nc1ccccc1F)C1=C(O)CCn2c1nc1c(F)c(F)ccc12 | 1.4 nM
9 | O=C(Nc1c(F)cccc1F)C1=C(O)CCn2c1nc1cc(F)ccc12 | 6.3 nM
10 | COc1ccc2c(c1)nc1n2CCC(O)=C1C(=O)Nc1ccccc1F | 6.1 nM
11 | Cc1cccc2c1nc1n2CCC(O)=C1C(=O)Nc1ccccc1F | 96.3 nM
12 | Cc1cccc2c1nc1n2CCC(O)=C1C(=O)Nc1ccccc1 | 10.1 nM
13 | O=C(Nc1ccccc1F)C1=C(O)CCn2c1nc1cc3ccccc3cc12 | 17 nM
14 | O=C(Nc1ccccc1F)C1=C(O)CCn2c1nc1cc(F)ccc12 | 1.9 nM
15 | O=C(Nc1c(F)cccc1F)C1=C(O)CCn2c1nc1cnccc12 | 17.7 nM
16 | O=C(Nc1ccccc1)C1=C(O)CCn2c1nc1ncccc12 | 8.3 nM

These compounds were tested on Mus musculus (assay: In vivo inhibitory activity against metrazole-induced seizures in mice by intraperitoneal administration). Conditions: ip.
Type: functional

Row | SMILES | ED50
17 | CN1C(=O)CN=C(c2ccccc2)c2cc(Cl)ccc21 [DIAZEPAM] | 0.11 mg/kg
18 | O=C(Nc1ccccc1F)C1=C(O)CCn2c1nc1c(F)cc(F)cc12 | > 1 mg/kg
19 | O=C(Nc1c(F)cccc1F)C1=C(O)CCn2c1nc1cc(Cl)ccc12 | 1 mg/kg
20 | O=C(Nc1ccccc1)C1=C(O)CCn2c1nc1cccnc12 | > 10 mg/kg
21 | O=C(Nc1ccccc1)C1=C(O)CCn2c1nc1ccc(Cl)cc12 | > 10 mg/kg
22 | O=C(Nc1ccccc1F)C1=C(O)CCn2c1nc1cccc(O)c12 | > 1 mg/kg
23 | O=C(Nc1ccccc1)C1=C(O)CCn2c1nc1cc(O)ccc12 | > 30 mg/kg
24 | O=C(Nc1ccccc1F)C1=C(O)CCn2c1nc1c(F)c(F)ccc12 | 0.2 mg/kg
25 | O=C(Nc1c(F)cccc1F)C1=C(O)CCn2c1nc1cc(F)ccc12 | 0.3 mg/kg
26 | COc1ccc2c(c1)nc1n2CCC(O)=C1C(=O)Nc1ccccc1F | > 10 mg/kg
27 | Cc1cccc2c1nc1n2CCC(O)=C1C(=O)Nc1ccccc1F | 1 mg/kg
28 | Cc1cccc2c1nc1n2CCC(O)=C1C(=O)Nc1ccccc1 | ~1 mg/kg
29 | O=C(Nc1ccccc1F)C1=C(O)CCn2c1nc1cc3ccccc3cc12 | 1 mg/kg
30 | O=C(Nc1ccccc1F)C1=C(O)CCn2c1nc1cc(F)ccc12 | < 1 mg/kg
31 | O=C(Nc1c(F)cccc1F)C1=C(O)CCn2c1nc1cnccc12 | > 10 mg/kg
32 | O=C(Nc1ccccc1)C1=C(O)CCn2c1nc1ncccc12 | 3 mg/kg

What follows are compounds tested on Mus musculus (assay: In vivo inhibitory activity against metrazole-induced seizures in mice by peroral administration). Conditions: po.
Type: functional

Row | SMILES | ED50
33 | CN1C(=O)CN=C(c2ccccc2)c2cc(Cl)ccc21 [DIAZEPAM] | 0.5 mg/kg
34 | O=C(Nc1ccccc1F)C1=C(O)CCn2c1nc1c(F)cc(F)cc12 | > 1 mg/kg
35 | O=C(Nc1c(F)cccc1F)C1=C(O)CCn2c1nc1cc(Cl)ccc12 | 10 mg/kg
36 | O=C(Nc1ccccc1)C1=C(O)CCn2c1nc1cccnc12 | > 10 mg/kg
37 | O=C(Nc1ccccc1)C1=C(O)CCn2c1nc1ccc(Cl)cc12 | > 30 mg/kg
38 | O=C(Nc1ccccc1F)C1=C(O)CCn2c1nc1cccc(O)c12 | > 30 mg/kg
39 | O=C(Nc1ccccc1)C1=C(O)CCn2c1nc1cc(O)ccc12 | > 30 mg/kg
40 | O=C(Nc1ccccc1F)C1=C(O)CCn2c1nc1c(F)c(F)ccc12 | 0.2 mg/kg
41 | O=C(Nc1c(F)cccc1F)C1=C(O)CCn2c1nc1cc(F)ccc12 | 3 mg/kg
42 | COc1ccc2c(c1)nc1n2CCC(O)=C1C(=O)Nc1ccccc1F | > 10 mg/kg
43 | Cc1cccc2c1nc1n2CCC(O)=C1C(=O)Nc1ccccc1F | 10 mg/kg
44 | Cc1cccc2c1nc1n2CCC(O)=C1C(=O)Nc1ccccc1 | > 10 mg/kg
45 | O=C(Nc1ccccc1F)C1=C(O)CCn2c1nc1cc3ccccc3cc12 | > 30 mg/kg
46 | O=C(Nc1ccccc1F)C1=C(O)CCn2c1nc1cc(F)ccc12 | > 30 mg/kg
47 | O=C(Nc1ccccc1)C1=C(O)CCn2c1nc1ncccc12 | < 30 mg/kg

The compounds below were run on Rattus norvegicus (assay: Inhibition of experimentally-induced conflict in rats following i.p. administration.). Conditions: ip, read-out: MED.
Type: functional

Row | SMILES | minimal effective dose
48 | CN1C(=O)CN=C(c2ccccc2)c2cc(Cl)ccc21 [DIAZEPAM] | 5 mg/kg
49 | O=C(Nc1c(F)cccc1F)C1=C(O)CCn2c1nc1cc(Cl)ccc12 | 10 mg/kg
50 | O=C(Nc1ccccc1)C1=C(O)CCn2c1nc1cccnc12 | > 10 mg/kg
51 | O=C(Nc1ccccc1)C1=C(O)CCn2c1nc1ccc(Cl)cc12 | > 10 mg/kg
52 | O=C(Nc1ccccc1F)C1=C(O)CCn2c1nc1cccc(O)c12 | > 1 mg/kg
53 | O=C(Nc1ccccc1)C1=C(O)CCn2c1nc1cc(O)ccc12 | > 30 mg/kg
54 | O=C(Nc1c(F)cccc1F)C1=C(O)CCn2c1nc1cc(F)ccc12 | 3 mg/kg
55 | COc1ccc2c(c1)nc1n2CCC(O)=C1C(=O)Nc1ccccc1F | > 10 mg/kg
56 | Cc1cccc2c1nc1n2CCC(O)=C1C(=O)Nc1ccccc1F | 10 mg/kg
57 | Cc1cccc2c1nc1n2CCC(O)=C1C(=O)Nc1ccccc1 | > 10 mg/kg
58 | O=C(Nc1ccccc1F)C1=C(O)CCn2c1nc1cc3ccccc3cc12 | 10 mg/kg
59 | O=C(Nc1ccccc1F)C1=C(O)CCn2c1nc1cc(F)ccc12 | 10 mg/kg
60 | O=C(Nc1ccccc1)C1=C(O)CCn2c1nc1ncccc12 | > 10 mg/kg

These compounds were tested on Rattus norvegicus (assay: Inhibitory activity determined by experimentally-induced conflict test in rats after oral administration). Conditions: read-out: MED.
Type: functional

Row | SMILES | minimal effective dose
61 | CN1C(=O)CN=C(c2ccccc2)c2cc(Cl)ccc21 [DIAZEPAM] | 10 mg/kg
62 | O=C(Nc1ccccc1F)C1=C(O)CCn2c1nc1c(F)cc(F)cc12 | > 10 mg/kg
63 | O=C(Nc1c(F)cccc1F)C1=C(O)CCn2c1nc1cc(Cl)ccc12 | 10 mg/kg
64 | O=C(Nc1ccccc1)C1=C(O)CCn2c1nc1cccnc12 | > 30 mg/kg
65 | O=C(Nc1ccccc1)C1=C(O)CCn2c1nc1ccc(Cl)cc12 | 30 mg/kg
66 | O=C(Nc1ccccc1F)C1=C(O)CCn2c1nc1cccc(O)c12 | > 30 mg/kg
67 | O=C(Nc1ccccc1)C1=C(O)CCn2c1nc1cc(O)ccc12 | > 30 mg/kg
68 | O=C(Nc1ccccc1F)C1=C(O)CCn2c1nc1c(F)c(F)ccc12 | 10 mg/kg
69 | O=C(Nc1c(F)cccc1F)C1=C(O)CCn2c1nc1cc(F)ccc12 | 3 mg/kg
70 | COc1ccc2c(c1)nc1n2CCC(O)=C1C(=O)Nc1ccccc1F | > 30 mg/kg
71 | Cc1cccc2c1nc1n2CCC(O)=C1C(=O)Nc1ccccc1F | > 30 mg/kg
72 | Cc1cccc2c1nc1n2CCC(O)=C1C(=O)Nc1ccccc1 | > 30 mg/kg
73 | O=C(Nc1ccccc1F)C1=C(O)CCn2c1nc1cc3ccccc3cc12 | > 10 mg/kg
74 | O=C(Nc1ccccc1F)C1=C(O)CCn2c1nc1cc(F)ccc12 | > 30 mg/kg
75 | O=C(Nc1c(F)cccc1F)C1=C(O)CCn2c1nc1cnccc12 | 3 mg/kg
76 | O=C(Nc1ccccc1)C1=C(O)CCn2c1nc1ncccc12 | 30 mg/kg

Each compound was assayed against GABA-A receptor; anion channel (Rattus norvegicus) (UniProt O09028+P15431+P18506+P18508+P19969+P20236+P23574+P23576+P28471+P28473+P30191+P62813+P63079+P63138+Q91ZM7+Q9ES14) (assay: GABA shift which is the ratio of binding in the absence and presence of GABA (1 mM) was determined). Conditions: not given.
Type: protein-complex assay

Row | SMILES | GS
77 | CN1C(=O)CN=C(c2ccccc2)c2cc(Cl)ccc21 [DIAZEPAM] | 2.2
78 | COc1cccc2c1nc1n2CCC(O)=C1C(=O)Nc1ccccc1F | 1.4
79 | O=C(Nc1ccccc1F)C1=C(O)CCn2c1nc1c(F)cc(F)cc12 | 1.2
80 | O=C(Nc1c(F)cccc1F)C1=C(O)CCn2c1nc1cc(Cl)ccc12 | 2.2
81 | O=C(Nc1ccccc1)C1=C(O)CCn2c1nc1cccnc12 | 2.1
82 | O=C(Nc1ccccc1)C1=C(O)CCn2c1nc1ccc(Cl)cc12 | 2.1
83 | O=C(Nc1ccccc1F)C1=C(O)CCn2c1nc1cccc(O)c12 | 2.8
84 | O=C(Nc1ccccc1)C1=C(O)CCn2c1nc1cc(O)ccc12 | 1.1
85 | O=C(Nc1ccccc1F)C1=C(O)CCn2c1nc1c(F)c(F)ccc12 | 1.7
86 | O=C(Nc1c(F)cccc1F)C1=C(O)CCn2c1nc1cc(F)ccc12 | 2.2
87 | COc1ccc2c(c1)nc1n2CCC(O)=C1C(=O)Nc1ccccc1F | 1.2
88 | Cc1cccc2c1nc1n2CCC(O)=C1C(=O)Nc1ccccc1F | 1.5
89 | Cc1cccc2c1nc1n2CCC(O)=C1C(=O)Nc1ccccc1 | 2.8
90 | O=C(Nc1ccccc1F)C1=C(O)CCn2c1nc1cc3ccccc3cc12 | 1
91 | O=C(Nc1ccccc1F)C1=C(O)CCn2c1nc1cc(F)ccc12 | 1.8
92 | O=C(Nc1c(F)cccc1F)C1=C(O)CCn2c1nc1cnccc12 | 2.4
93 | O=C(Nc1ccccc1)C1=C(O)CCn2c1nc1ncccc12 | 3
